“Also recorded” adds a separate entry of the source.
Legend:
[1] = test system: experimental autoimmune encephalomyelitis (EAE) provoked by myelin oligodendrocyte glycoprotein (MOG); test: CR EAE provoked by MOG in mice, s.c. treatment; format: in vivo; conditions: for ASC (treatment from day 5 to day 22): HMW Zn-HA 10 mg/kg, ZnCl2 equivalent to 0.8 mg/kg Zn2+; for Effect on the EAE model (in words): mice
Text: The only adequate and widely used model available for purposes of preclinical investigations of multiple sclerosis is the experimental autoimmune encephalomyelitis (EAE) (Mokhatarian et al., Nature 309, 356-358. (1984); Raine et al., Lab. Invest. 31, 369-380. (1974)), an inflammatory disease of the central nervous system transmitted by CD4^+ T-lymphocytes. Although the clinical complexity of the model is moderate compared with the disease investigated, its use is unavoidable in a research aimed at MS. Preclinical tests of Copolymer-1 (Copaxone) and interferon beta-1 already approved for human treatment, as well as those of the new drugs under development were/are carried out using this model (Popovic et al., Ann. Neurol. 51, 215-223. (2001); Stanislaus et al., Neurosci. Lett. 333, 167-170. (2002)). […] That's why in our experiments CR EAE provoked by myelin oligodendrocyte glycoprotein (MOG) in mice has been studied (Amor et al., J. Immunol. 153, 4349-4356. (1994)). In the middle of the 1960s the effect of hyaluronan sodium salt was investigated by Romanian research workers on EAE model.
Next, the possible effect of the HMW Zn-HA (10 mg/kg in 200 μl of physiological saline, subcutane) on the time of appearance of clinical symptoms has been investigated.
Tests were carried out on groups of mice (n=6-10 mice/group) using two types of treatment: (i) prophylactic, wherein administration happens from day 5 to day 22 after inoculation of MOG, or in a single case from day 9-10 to day 28 after that (marked with # in tables 2 and 3); and (ii) therapeutic treatment, wherein administration of the Zn-HA happened from day 13 to day 28 after the EAE had been induced (marked with * in tables 2 and 3).
The mice were given 10 mg/kg HMW Zn-HA s. c. daily and clinical data thereof were obtained from day 10 to day 28 and day 5 to day 22, respectively, after the EAE had been induced. The results were calculated from the average daily clinical data to give the average summed up clinical data (ASC).
In the studies summarized in Tables 1 to 4 each mouse used as EAE model received 200 μl s. c. injection each; the injection contained the active ingredient or the carrier (0.9% sodium chloride aqueous solution). To obtain the doses given in terms of mg/kg bodyweight above solutions of different concentration were prepared as follows: […]

[2] = target: matrix metalloproteinases, particularly the MMP-9 (Homo sapiens, UniProt P14780); conditions: cited from earlier work
Sequence of matrix metalloproteinases, particularly the MMP-9 (P14780 94-707): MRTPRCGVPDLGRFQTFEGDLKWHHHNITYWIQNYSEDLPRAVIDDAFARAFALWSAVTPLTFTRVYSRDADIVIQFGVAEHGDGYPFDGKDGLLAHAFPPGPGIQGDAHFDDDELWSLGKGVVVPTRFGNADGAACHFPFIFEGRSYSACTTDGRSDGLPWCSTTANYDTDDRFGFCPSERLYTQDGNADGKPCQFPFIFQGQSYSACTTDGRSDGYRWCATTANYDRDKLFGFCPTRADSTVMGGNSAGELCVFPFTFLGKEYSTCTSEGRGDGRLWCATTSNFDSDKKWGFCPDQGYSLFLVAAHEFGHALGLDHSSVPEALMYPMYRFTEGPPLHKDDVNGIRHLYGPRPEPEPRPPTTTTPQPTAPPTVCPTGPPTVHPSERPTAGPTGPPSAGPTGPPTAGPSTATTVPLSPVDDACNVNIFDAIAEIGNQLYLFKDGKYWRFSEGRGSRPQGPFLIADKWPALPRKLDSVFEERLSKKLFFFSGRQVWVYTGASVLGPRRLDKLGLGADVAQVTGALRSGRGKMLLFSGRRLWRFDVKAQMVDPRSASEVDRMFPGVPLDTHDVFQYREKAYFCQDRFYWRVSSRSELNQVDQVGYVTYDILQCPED

[3] = test system: EAE; conditions: rabbits, intramuscularly; cited from earlier work
[4] = compared with the sodium-HA salt; cited from earlier work

Compound | ASC (treatment from day 5 to day 22) [1] | Effect on the EAE model (in words) [1] | Effect on the EAE model (in words) ([1]; listed as Zn^2+) | Effect on the EAE model (in words) ([1]; listed as Na-HA) | Effect on the EAE model (in words) ([1]; listed as Na-HA salt) | Effect on the EAE model (in words) ([1]; listed as Na-hyaluronan) | Inhibitory effect on tissue damaging enzymes (matrix metalloproteinases, particularly the MMP-9) [2] | Effect on development of EAE (in words) [3] | Antioxidant activity [4]
[Cl-].[Cl-].[Zn+2] [ZnCl2, zinc chloride] | 14.2 ± 3.3 | did not show significant effect | ineffective |  |  |  |  |  | 
Na-hyaluronan [HMW Na-HA] | 14.2 ± 1.9 |  |  | ineffective | ineffective; also recorded: did not show significant effect | didn't exert any influence | does not show the latter effect | did not inhibit, but in certain cases did assist the development of EAE | 
zinc-hyaluronan complex [zinc-HA] |  |  |  |  |  |  | inhibitory effect |  | increased antioxidant activity

From US20070123488A1, “Pharmaceutical composition comprising a zinc-hyaluronate complex for the treatment of multiple sclerosis” (RICHTER GEDEON VEGYESZETI GYAR RT., priority 2003, published 2007)
